Source: US20070191333A1, “Antibacterial agents” (Warner Lambert Company LLC, priority 2003, published 2007)
Converted amounts (≈) assume the structure as drawn. Like-named read-outs stand apart in the source and are kept apart here.

Assays:
Format in all cases: cell-based
[1] = tested on: H. influenzae HI-3542; experiment: Antibacterial microtitration MIC, H. influenzae HI-3542; details: strain HI-3542; for MIC: Haemophilus influenzae, HI3542, Gram Negative Bacteria, read-out: Minimum Inhibitory Concentrations H. influenzae HI-3542; for Minimum Inhibitory Concentrations H. influenzae HI-3542: Gram Negative Bacteria
Experimental: (§1) Test A—Antibacterial Assays The compounds of the present invention were tested against an assortment of Gram-negative and Gram-positive organisms using standard microtitration techniques (Cohen et. al., Antimicrob., 1985; 28:766; Heifetz, et. al., Antimicrob., 1974; 6:124).

[2] = tested on: E. coli 2026; experiment: Antibacterial microtitration MIC, E. coli 2026; details: strain 2026; for MIC: read-out: Minimum Inhibitory Concentrations E. coli 2026
Experimental: as §1

[3] = tested on: M. catarrhalis BC-3531; experiment: Antibacterial microtitration MIC, M. catarrhalis BC-3531; details: strain BC-3531; for MIC: Moraxella catarrhalis, BC3531, Gram Negative Bacteria, read-out: Minimum Inhibitory Concentrations M. catarrhalis BC-3531; for Minimum Inhibitory Concentrations M. catarrhalis BC-3531: Gram Negative Bacteria
Experimental: as §1

[4] = tested on: S pyogenes C203; experiment: Antibacterial microtitration MIC, S pyogenes C203; details: Gram Positive Bacteria, strain C203; for MIC: read-out: Minimum Inhibitory Concentrations S pyogenes C203
Experimental: as §1

[5] = tested on: S. aureus UC-76; experiment: Antibacterial microtitration MIC, S. aureus UC-76; details: strain UC-76; for MIC: Staphylococcus aureus, UC76, Gram Positive Bacteria, read-out: Minimum Inhibitory Concentrations S. aureus UC-76; for Minimum Inhibitory Concentrations S. aureus UC-76: Gram Positive Bacteria
Experimental: as §1

[6] = tested on: S. pneumo SV-1; experiment: Antibacterial microtitration MIC, S. pneumo SV-1; details: Gram Positive Bacteria, strain SV-1; for MIC: read-out: Minimum Inhibitory Concentrations S. pneumo SV-1
Experimental: as §1

[7] = tested on: E. faecalis MGH-2; experiment: Antibacterial microtitration MIC, E. faecalis MGH-2; details: strain MGH-2; for MIC: Enterococcus faecalis, MGH2, Gram Positive Bacteria, read-out: Minimum Inhibitory Concentrations E. faecalis MGH-2; for Minimum Inhibitory Concentrations E. faecalis MGH-2: Gram Positive Bacteria
Experimental: as §1

[8] = Escherichia coli, 2026, Gram Negative Bacteria
[9] = Escherichia coli, Gram Negative Bacteria

MIC [1] [µg/mL] | MIC [3] [µg/mL] | MIC [4] [µg/mL] | MIC [5] [µg/mL] | MIC [6] [µg/mL] | MIC [7] [µg/mL] | Compound | further results
0.5 (≈ 1.21 µM) | 1 (≈ 2.41 µM) |  |  |  |  | Cc1c(N2CC[C@@H]([C@H](C)NCCC#N)C2)c(F)cc2c(=O)n(N)c(=O)n(C3CC3)c12 (single isomer, unassigned) [drawing 394] | MIC [2, 8]: 4 µg/mL (≈ 9.65 µM)
64 (≈ 154 µM) | 64 (≈ 154 µM) |  |  |  |  | COc1c(N2CC[C@@H]([C@H](C)NCCC#N)C2)c(F)cc2c(=O)[nH]c(=O)n(C3CC3)c12 (single isomer, unassigned) [drawing 401] | MIC [2, 8]: 64 µg/mL (≈ 154 µM)
16 (≈ 37.2 µM) | 16 (≈ 37.2 µM) |  |  |  |  | COc1c(N2CC[C@@H]([C@H](C)NCCC#N)C2)c(F)cc2c(=O)n(N)c(=O)n(C3CC3)c12 (single isomer, unassigned) [drawing 400] | MIC [2, 8]: 64 µg/mL (≈ 149 µM)
 |  |  |  |  |  | Cc1c(N2CCC(C(N)C(C)(C)C#N)C2)c(F)cc2c(=O)n(N)c(=O)n(C3CC3)c12 (centres unmarked) [drawing 420] | Minimum Inhibitory Concentrations S pyogenes C203 [4]: 16 µg/mL; Minimum Inhibitory Concentrations S. aureus UC-76 [5]: 8 µg/mL; Minimum Inhibitory Concentrations S. pneumo SV-1 [6]: 8 µg/mL; Minimum Inhibitory Concentrations E. faecalis MGH-2 [7]: 16 µg/mL
 |  | 32 (≈ 77.2 µM) | 12 (≈ 29 µM) |  | 32 (≈ 77.2 µM) | Cc1c(N2CCC(C(N)C(C)(C)C#N)C2)c(F)cc2c(=O)n(N)c(=O)n(C3CC3)c12 (centres unmarked) [drawing 419] | Minimum Inhibitory Concentrations S. pneumo SV-1 [6]: 32 µg/mL
1 (≈ 2.26 µM) | 8 (≈ 18.1 µM) |  |  |  |  | COc1c(N2CC(CNCCC#N)C3(CC3)C2)c(F)cc2c(=O)n(N)c(=O)n(C3CC3)c12 (centres unmarked) [drawing 404] | MIC [2, 8]: 2 µg/mL (≈ 4.52 µM)
 |  | 0.125 (≈ 0.337 µM) | 0.25 (≈ 0.673 µM) | 0.125 (≈ 0.337 µM) | 0.5 (≈ 1.35 µM) | Cc1c(N2CC[C@@H]([C@@H](N)CC#N)C2)c(F)cc2c(=O)[nH]c(=O)n(C3CC3)c12 (single isomer, unassigned) [drawing 408] | 
2 (≈ 5.18 µM) | 0.5 (≈ 1.29 µM) |  |  |  |  | Cc1c(N2CCC(C(N)CC#N)C2)c(F)cc2c(=O)n(N)c(=O)n(C3CC3)c12 (centres unmarked) [drawing 388] | MIC [2, 8]: 8 µg/mL (≈ 20.7 µM)
 |  | 0.125 (≈ 0.29 µM) | 0.25 (≈ 0.581 µM) | 0.125 (≈ 0.29 µM) | 1 (≈ 2.32 µM) | COc1c(N2CC[C@@H]([C@H](C)NCCC#N)C2)c(F)cc2c(=O)n(N)c(=O)n(C3CC3)c12 (single isomer, unassigned) [drawing 417] | 
 |  |  |  |  |  | Cc1c(N2CC[C@@H]([C@@H](N)CC#N)C2)c(F)cc2c(=O)[nH]c(=O)n(C3CC3)c12 (single isomer, unassigned) [drawing 409] | Minimum Inhibitory Concentrations S pyogenes C203 [4]: 0.25 µg/mL; Minimum Inhibitory Concentrations S. aureus UC-76 [5]: 0.5 µg/mL; Minimum Inhibitory Concentrations S. pneumo SV-1 [6]: 0.125 µg/mL; Minimum Inhibitory Concentrations E. faecalis MGH-2 [7]: 1 µg/mL
 |  | 0.03 (≈ 0.0724 µM) | 0.06 (≈ 0.145 µM) | 0.015 (≈ 0.0362 µM) | 0.125 (≈ 0.302 µM) | Cc1c(N2CC[C@@H]([C@H](C)NCCC#N)C2)c(F)cc2c(=O)n(N)c(=O)n(C3CC3)c12 (single isomer, unassigned) [drawing 411] | 
 |  | 0.5 (≈ 1.29 µM) | 1 (≈ 2.59 µM) | 0.5 (≈ 1.29 µM) | 4 (≈ 10.4 µM) | Cc1c(N2CC[C@H]([C@H](N)CC#N)C2)c(F)cc2c(=O)n(N)c(=O)n(C3CC3)c12 (racemic) [drawing 406] | 
 |  | 0.125 (≈ 0.323 µM) | 0.25 (≈ 0.647 µM) | 0.125 (≈ 0.323 µM) | 0.5 (≈ 1.29 µM) | Cc1c(N2CCC(C(N)CC#N)C2)c(F)cc2c(=O)n(N)c(=O)n(C3CC3)c12 (centres unmarked) [drawing 405] | 
 |  | 0.5 (≈ 1.24 µM) | 2 (≈ 4.97 µM) | 0.5 (≈ 1.24 µM) | 2 (≈ 4.97 µM) | COc1c(N2CCC(C(N)CC#N)C2)c(F)cc2c(=O)n(N)c(=O)n(C3CC3)c12 (centres unmarked) [drawing 410] | 
 |  | 0.06 (≈ 0.136 µM) | 0.25 (≈ 0.565 µM) | 0.06 (≈ 0.136 µM) | 1 (≈ 2.26 µM) | COc1c(N2CC(CNCCC#N)C3(CC3)C2)c(F)cc2c(=O)n(N)c(=O)n(C3CC3)c12 (centres unmarked) [drawing 421] | 
8 (≈ 19.9 µM) | 16 (≈ 39.8 µM) |  |  |  |  | COc1c(N2CCC(C(N)CC#N)C2)c(F)cc2c(=O)n(N)c(=O)n(C3CC3)c12 (centres unmarked) [drawing 393] | MIC [2, 8]: 64 µg/mL (≈ 159 µM)
 |  | 0.5 (≈ 1.2 µM) | 1 (≈ 2.41 µM) | 0.25 (≈ 0.602 µM) | 2 (≈ 4.81 µM) | COc1c(N2CC[C@@H]([C@H](C)NCCC#N)C2)c(F)cc2c(=O)[nH]c(=O)n(C3CC3)c12 (single isomer, unassigned) [drawing 418] | 
4 (≈ 10.4 µM) | 16 (≈ 41.4 µM) |  |  |  |  | Cc1c(N2CC[C@H]([C@H](N)CC#N)C2)c(F)cc2c(=O)n(N)c(=O)n(C3CC3)c12 (racemic) [drawing 389] | MIC [2, 8]: 32 µg/mL (≈ 82.8 µM)
1 (≈ 2.59 µM) | 2 (≈ 5.18 µM) |  |  |  |  | Cc1c(N2CC[C@@H]([C@@H](N)CC#N)C2)c(F)cc2c(=O)n(N)c(=O)n(C3CC3)c12 (single isomer, unassigned) [drawing 390] | MIC [2, 8]: 8 µg/mL (≈ 20.7 µM)
32 (≈ 77.2 µM) |  |  |  |  |  | Cc1c(N2CCC(C(N)C(C)(C)C#N)C2)c(F)cc2c(=O)n(N)c(=O)n(C3CC3)c12 (centres unmarked) [drawing 402] | MIC [2, 8]: 64 µg/mL (≈ 154 µM); Minimum Inhibitory Concentrations M. catarrhalis BC-3531 [3]: 5.25 µg/mL
4 (≈ 10.8 µM) | 4 (≈ 10.8 µM) |  |  |  |  | Cc1c(N2CC[C@@H]([C@@H](N)CC#N)C2)c(F)cc2c(=O)[nH]c(=O)n(C3CC3)c12 (single isomer, unassigned) [drawing 391] | Minimum Inhibitory Concentrations E. coli 2026 ([2]; Gram Negative Bacteria): 32 µg/mL
 |  |  |  |  |  | Cc1c(N2CC[C@@H]([C@@H](N)CC#N)C2)c(F)cc2c(=O)[nH]c(=O)n(C3CC3)c12 (single isomer, unassigned) [drawing 392] | Minimum Inhibitory Concentrations H. influenzae HI-3542 [1]: 2 µg/mL; Minimum Inhibitory Concentrations E. coli 2026 ([2]; Gram Negative Bacteria): 8 µg/mL; Minimum Inhibitory Concentrations M. catarrhalis BC-3531 [3]: 4 µg/mL
 |  | 0.03 (≈ 0.0776 µM) | 0.125 (≈ 0.323 µM) | 0.06 (≈ 0.155 µM) | 0.25 (≈ 0.647 µM) | Cc1c(N2CC[C@@H]([C@@H](N)CC#N)C2)c(F)cc2c(=O)n(N)c(=O)n(C3CC3)c12 (single isomer, unassigned) [drawing 407] | 
 |  |  |  |  |  | Cc1c(N2CCC(C(N)C(C)(C)C#N)C2)c(F)cc2c(=O)n(N)c(=O)n(C3CC3)c12 (centres unmarked) [drawing 403] | Minimum Inhibitory Concentrations H. influenzae HI-3542 [1]: 32 µg/mL; Minimum Inhibitory Concentrations E. coli 2026 ([2]; Gram Negative Bacteria): 64 µg/mL; Minimum Inhibitory Concentrations M. catarrhalis BC-3531 [3]: 16 µg/mL

Compound | MIC [1] [µg/mL] | MIC [3] [µg/mL] | MIC [4] [µg/mL] | MIC [5] [µg/mL] | MIC [6] [µg/mL] | MIC [7] [µg/mL] | further results
Cc1c(N2C[C@H](CNCCC#N)[C@@H](F)C2)c(F)cc2c(=O)n(N)c(=O)n(C3CC3)c12 (racemic) [drawing 414] |  |  | 1 (≈ 2.39 µM) | 2 (≈ 4.78 µM) | 1 (≈ 2.39 µM) | 4 (≈ 9.56 µM) | 
Cc1c(N2C[C@@H](CNCCC#N)[C@H](C)C2)c(F)cc2c(=O)n(N)c(=O)n(C3CC3)c12 (single isomer, unassigned) |  |  | 0.06 (≈ 0.145 µM) | 0.25 (≈ 0.603 µM) | 0.06 (≈ 0.145 µM) | 0.5 (≈ 1.21 µM) | 
Cc1c(N2C[C@H](CNCCC#N)[C@@H](C)C2)c(F)cc2c(=O)n(N)c(=O)n(C3CC3)c12 (stereo in doubt) | 4 (≈ 9.65 µM) | 4 (≈ 9.65 µM) |  |  |  |  | MIC [2, 9]: 8 µg/mL (≈ 19.3 µM)
Cc1c(N2CC[C@@H](C(NCCC#N)c3ncco3)C2)c(F)cc2c(=O)n(N)c(=O)n(C3CC3)c12 (some centres unmarked) [drawing 399] | 4 (≈ 8.56 µM) | 16 (≈ 34.2 µM) |  |  |  |  | MIC [2, 9]: 16 µg/mL (≈ 34.2 µM)
Cc1c(N2CC[C@@H](C(NCCC#N)c3ncco3)C2)c(F)cc2c(=O)n(N)c(=O)n(C3CC3)c12 (some centres unmarked) [drawing 416] |  |  | 8 (≈ 17.1 µM) | 8 (≈ 17.1 µM) | 8 (≈ 17.1 µM) | 32 (≈ 68.4 µM) | 
COc1c(N2C[C@@H]3CCC(NCCC#N)[C@@H]3C2)c(F)cc2c(=O)n(N)c(=O)n(C3CC3)c12 (some centres unmarked) [drawing 415] |  |  | 1 (≈ 2.26 µM) | 1 (≈ 2.26 µM) | 0.5 (≈ 1.13 µM) | 4 (≈ 9.04 µM) | 
Cc1c(N2C[C@@H](CNCCC#N)[C@H](C)C2)c(F)cc2c(=O)n(N)c(=O)n(C3CC3)c12 (stereo in doubt) | 2 (≈ 4.83 µM) | 4 (≈ 9.65 µM) |  |  |  |  | MIC [2, 9]: 8 µg/mL (≈ 19.3 µM)
Cc1c(N2C[C@H](CNCCC#N)[C@@H](F)C2)c(F)cc2c(=O)n(N)c(=O)n(C3CC3)c12 (racemic) [drawing 397] | 8 (≈ 19.1 µM) | 16 (≈ 38.2 µM) |  |  |  |  | MIC [2, 9]: 32 µg/mL (≈ 76.5 µM)
COc1c(N2C[C@@H]3CCC(NCCC#N)[C@@H]3C2)c(F)cc2c(=O)n(N)c(=O)n(C3CC3)c12 (some centres unmarked) [drawing 398] | 8 (≈ 18.1 µM) | 64 (≈ 145 µM) |  |  |  |  | MIC [2, 9]: 64 µg/mL (≈ 145 µM)
Cc1c(N2C[C@H](CNCCC#N)[C@@H](C)C2)c(F)cc2c(=O)n(N)c(=O)n(C3CC3)c12 (single isomer, unassigned) |  |  | 0.125 (≈ 0.302 µM) | 0.25 (≈ 0.603 µM) | 0.125 (≈ 0.302 µM) | 0.5 (≈ 1.21 µM) | 
